Calls of active or inactive are those of the source. No cut-off for these calls is given here.
Experiments:
[1] = target: T1, Hepatocyte growth factor receptor (Homo sapiens, UniProt P08581); assay: Inhibition of c-Met Y1234/1235 phosphorylation in human EBC1 cells at 11 nM to 100 nM incubated for 2 hrs by Western blot method; assay type: cell-based
A549 [2] = assay: Inhibition of cell proliferation of human A549 cells after 72 hrs by SRB assay; assay type: functional, cell-based; details: A549, 72 h
NCI-H358 [3] = assay: Selectivity index, ratio of IC50 for human NCI-H358 cells to IC50 for human SNU5 cells; assay type: functional
[4] = target: T1, Hepatocyte growth factor receptor; assay: Inhibition of c-Met in human EBC1 cells assessed as reduction in ERK T202/Y204 phosphorylation at 11 nM to 100 nM incubated for 2 hrs by Western blot method; assay type: cell-based
SNU-5 [5] = assay: Selectivity index, ratio of IC50 for human NCI-H661 cells to IC50 for human SNU5 cells; assay type: functional
MKN-45 [6] = assay: Selectivity index, ratio of IC50 for human NCI-H520 cells to IC50 for human MKN45 cells; assay type: functional
[7] = Selectivity index, ratio of IC50 for human PC3 cells to IC50 for human EBC1 cells; assay type: functional
MKN-45 [8] = assay: Selectivity index, ratio of IC50 for human PC3 cells to IC50 for human MKN45 cells; assay type: functional
[9] = target: Fibroblast growth factor receptor 1 (Homo sapiens, UniProt P11362); assay: Inhibition of FGFR1 (unknown origin)
A549 [10] = assay: Selectivity index, ratio of IC50 for human A549 cells to IC50 for human MKN45 cells; assay type: functional
[11] = Inhibition of cell proliferation of human EBC1 cells after 72 hrs by SRB assay; details: EBC-1, 72 h
NCI-H460 [12] = assay: Selectivity index, ratio of IC50 for human NCI-H460 cells to IC50 for human SNU5 cells; assay type: functional
[13] = target: Macrophage-stimulating protein receptor (Homo sapiens, UniProt Q04912); assay: Inhibition of RON (unknown origin)
[14] = Selectivity index, ratio of IC50 for human NCI-H661 cells to IC50 for human EBC1 cells; assay type: functional
MKN-45 [15] = assay: Selectivity index, ratio of IC50 for human NCI-H661 cells to IC50 for human MKN45 cells; assay type: functional
[16] = target: T1, Hepatocyte growth factor receptor; assay: Inhibition of recombinant c-Met (unknown origin) using poly (Glu,Tyr)4:1 substrate incubated for 60 mins by ELISA method
SNU-16 [17] = assay: Selectivity index, ratio of IC50 for human SNU16 cells to IC50 for human SNU5 cells; assay type: functional
NCI-H661 = assay: Inhibition of cell proliferation of human NCI-H661 cells after 72 hrs by SRB assay; details: NCI-H661, 72 h
[18] = target: Insulin-like growth factor 1 receptor (Homo sapiens, UniProt P08069); assay: Inhibition of IGF1R (unknown origin)
[19] = target: Tyrosine-protein kinase receptor UFO (Homo sapiens, UniProt P30530); assay: Inhibition of AXL (unknown origin)
SNU-5 [20] = assay: Selectivity index, ratio of IC50 for human NCI-H520 cells to IC50 for human SNU5 cells; assay type: functional
A549 [21] = assay: Selectivity index, ratio of IC50 for human A549 cells to IC50 for human SNU5 cells; assay type: functional
NCI-H460 [22] = assay: Inhibition of cell proliferation of human NCI-H460 cells after 72 hrs by SRB assay; assay type: functional, cell-based; details: NCI-H460, 72 h
[23] = Inhibition of cell proliferation of human PC3 cells after 72 hrs by SRB assay; assay type: functional, cell-based; details: PC-3, 72 h
NCI-H460 [24] = assay: Selectivity index, ratio of IC50 for human NCI-H460 cells to IC50 for human EBC1 cells; assay type: functional
SNU-16 [25] = assay: Selectivity index, ratio of IC50 for human SNU16 cells to IC50 for human MKN45 cells; assay type: functional
[26] = target: Epidermal growth factor receptor (Homo sapiens, UniProt P00533, L858R/T790M); assay: Inhibition of EGFR T790M/L858R mutant (unknown origin); assay type: protein assay
NCI-H358 [27] = assay: Selectivity index, ratio of IC50 for human NCI-H358 cells to IC50 for human EBC1 cells; assay type: functional
[28] = Inhibition of cell proliferation of human SNU16 cells after 72 hrs by SRB assay; assay type: functional, cell-based; details: SNU-16, 72 h
NCI-H358 [29] = assay: Selectivity index, ratio of IC50 for human NCI-H358 cells to IC50 for human MKN45 cells; assay type: functional
[30] = Inhibition of cell proliferation of human SNU5 cells after 72 hrs by SRB assay; details: SNU-5, 72 h
A549 [31] = assay: Selectivity index, ratio of IC50 for human A549 cells to IC50 for human EBC1 cells; assay type: functional
[32] = target: Platelet-derived growth factor receptor beta (Homo sapiens, UniProt P09619); assay: Inhibition of PDGFRbeta (unknown origin)
[33] = target: Vascular endothelial growth factor receptor 1 (Homo sapiens, UniProt P17948); assay: Inhibition of FLT1 (unknown origin)
[34] = target: Receptor tyrosine-protein kinase erbB-4 (Homo sapiens, UniProt Q15303); assay: Inhibition of ERBB4 (unknown origin)
[35] = target: Tyrosine-protein kinase receptor TYRO3 (Homo sapiens, UniProt Q06418); assay: Inhibition of TYRO3 (unknown origin)
Ephrin type-A receptor 2 = Ephrin type-A receptor 2 (Homo sapiens, UniProt P29317); assay: Inhibition of EPHA2 (unknown origin)
[36] = target: T1, Hepatocyte growth factor receptor; assay: Inhibition of c-Met in human EBC1 cells assessed as reduction in Akt S473 phosphorylation at 11 nM to 100 nM incubated for 2 hrs by Western blot method; assay type: cell-based
[37] = Selectivity index, ratio of IC50 for human NCI-H520 cells to IC50 for human EBC1 cells; assay type: functional
[38] = Inhibition of cell proliferation of human MKN45 cells after 72 hrs by SRB assay; details: MKN-45, 72 h
NCI-H460 [39] = assay: Selectivity index, ratio of IC50 for human NCI-H460 cells to IC50 for human MKN45 cells; assay type: functional
SNU-5 [40] = assay: Selectivity index, ratio of IC50 for human PC3 cells to IC50 for human SNU5 cells; assay type: functional
NCI-H358 [41] = assay: Inhibition of cell proliferation of human NCI-H358 cells after 72 hrs by SRB assay; assay type: functional, cell-based; details: NCI-H358, 72 h
SNU-16 [42] = assay: Selectivity index, ratio of IC50 for human SNU16 cells to IC50 for human EBC1 cells; assay type: functional
[43] = target: ALK tyrosine kinase receptor (Homo sapiens, UniProt Q9UM73); assay: Inhibition of ALK (unknown origin)
[44] = target: Epidermal growth factor receptor (Homo sapiens, UniProt P00533); assay: Inhibition of EGFR (unknown origin)
[45] = target: T1, Hepatocyte growth factor receptor; assay: Inhibition of c-Met Y1234/1235 phosphorylation in human EBC1 cells at 0.1 uM incubated for 2 hrs by Western blot method; assay type: cell-based
NCI-H520 = assay: Inhibition of cell proliferation of human NCI-H520 cells after 72 hrs by SRB assay; assay type: functional, cell-based; details: NCI-H520, 72 h

O=c1ccc(-n2ccc3ccc(F)cc32)nn1CCOc1ccnc2cc(OCCCN3CCOCC3)ccc12
inhibition [1]: Dose-dependent effect | IC50 (A549 [2]): > 10 µM | Ratio IC50 (NCI-H358 [3]): 100 | inhibition [4]: Active | Ratio IC50 (SNU-5 [5]): 100 | Ratio IC50 (MKN-45 [6]): 100 | Ratio IC50 [7]: 100 | Ratio IC50 (MKN-45 [8]): > 100 | IC50 [9]: > 1 µM | Ratio IC50 (A549 [10]): 100 | IC50 [11]: 0.0172 µM | Ratio IC50 (NCI-H460 [12]): 100 | IC50 [13]: > 1 µM | Ratio IC50 [14]: 100 | Ratio IC50 (MKN-45 [15]): 100 | IC50 [16]: 0.0042 µM | Ratio IC50 (SNU-16 [17]): > 100 | IC50 (NCI-H661): > 10000 µM | IC50 [18]: > 1 µM | IC50 [19]: > 1 µM | Ratio IC50 (SNU-5 [20]): 100 | Ratio IC50 (A549 [21]): 100 | IC50 (NCI-H460 [22]): > 10 µM | IC50 [23]: > 10 µM | Ratio IC50 (NCI-H460 [24]): 100 | Ratio IC50 (SNU-16 [25]): > 100 | IC50 [26]: > 1 µM | Ratio IC50 (NCI-H358 [27]): 100 | IC50 [28]: > 10 µM | Ratio IC50 (NCI-H358 [29]): 100 | IC50 [30]: 88.1 µM | Ratio IC50 (A549 [31]): 100 | IC50 [32]: > 1 µM | IC50 [33]: > 1 µM | IC50 [34]: > 1 µM | IC50 [35]: > 1 µM | IC50 (Ephrin type-A receptor 2): > 1 µM | inhibition [36]: Active | Ratio IC50 [37]: 100 | IC50 [38]: 60.7 µM | Ratio IC50 (NCI-H460 [39]): 100 | Ratio IC50 (SNU-5 [40]): > 100 | IC50 (NCI-H358 [41]): > 10 µM | Ratio IC50 (SNU-16 [42]): > 100 | IC50 [43]: > 1 µM | IC50 [44]: > 1 µM | inhibition [45]: Active | IC50 (NCI-H520): > 10 µM

— ChEMBL document CHEMBL3414492, “Enhancing the cellular anti-proliferation activity of pyridazinones as c-met inhibitors using docking analysis” (Eur J Med Chem, 2015)
